Data taken from publication PMC4137556 (Biochimica et biophysica acta, 2013).
Positions of bridges follow the written chain, without caps; N, C: chain ends. Non-standard residues stand in square brackets, D forms with d. Residues, ends and D or L forms follow the SMILES beside them. pGlu = O=C1CC[C@@H](C(=O)O)N1

Experiments:
[1] = system: murine cerebrocortical neuron cells; test: Effect on neuronal Ca2+ oscillations, peptide alone; format: cell-based, mouse; conditions: ASPA alone, without veratridine
[2] = target: voltage-gated Na+ (NaV1.2) channel (Homo sapiens, UniProt Q99250); test: Voltage-gated Na+ channel inhibition/activation; format: cell-based; conditions: ASPA administered alone, up to micromolar concentrations
Chain of voltage-gated Na+ (NaV1.2) channel (Q99250 whole entry): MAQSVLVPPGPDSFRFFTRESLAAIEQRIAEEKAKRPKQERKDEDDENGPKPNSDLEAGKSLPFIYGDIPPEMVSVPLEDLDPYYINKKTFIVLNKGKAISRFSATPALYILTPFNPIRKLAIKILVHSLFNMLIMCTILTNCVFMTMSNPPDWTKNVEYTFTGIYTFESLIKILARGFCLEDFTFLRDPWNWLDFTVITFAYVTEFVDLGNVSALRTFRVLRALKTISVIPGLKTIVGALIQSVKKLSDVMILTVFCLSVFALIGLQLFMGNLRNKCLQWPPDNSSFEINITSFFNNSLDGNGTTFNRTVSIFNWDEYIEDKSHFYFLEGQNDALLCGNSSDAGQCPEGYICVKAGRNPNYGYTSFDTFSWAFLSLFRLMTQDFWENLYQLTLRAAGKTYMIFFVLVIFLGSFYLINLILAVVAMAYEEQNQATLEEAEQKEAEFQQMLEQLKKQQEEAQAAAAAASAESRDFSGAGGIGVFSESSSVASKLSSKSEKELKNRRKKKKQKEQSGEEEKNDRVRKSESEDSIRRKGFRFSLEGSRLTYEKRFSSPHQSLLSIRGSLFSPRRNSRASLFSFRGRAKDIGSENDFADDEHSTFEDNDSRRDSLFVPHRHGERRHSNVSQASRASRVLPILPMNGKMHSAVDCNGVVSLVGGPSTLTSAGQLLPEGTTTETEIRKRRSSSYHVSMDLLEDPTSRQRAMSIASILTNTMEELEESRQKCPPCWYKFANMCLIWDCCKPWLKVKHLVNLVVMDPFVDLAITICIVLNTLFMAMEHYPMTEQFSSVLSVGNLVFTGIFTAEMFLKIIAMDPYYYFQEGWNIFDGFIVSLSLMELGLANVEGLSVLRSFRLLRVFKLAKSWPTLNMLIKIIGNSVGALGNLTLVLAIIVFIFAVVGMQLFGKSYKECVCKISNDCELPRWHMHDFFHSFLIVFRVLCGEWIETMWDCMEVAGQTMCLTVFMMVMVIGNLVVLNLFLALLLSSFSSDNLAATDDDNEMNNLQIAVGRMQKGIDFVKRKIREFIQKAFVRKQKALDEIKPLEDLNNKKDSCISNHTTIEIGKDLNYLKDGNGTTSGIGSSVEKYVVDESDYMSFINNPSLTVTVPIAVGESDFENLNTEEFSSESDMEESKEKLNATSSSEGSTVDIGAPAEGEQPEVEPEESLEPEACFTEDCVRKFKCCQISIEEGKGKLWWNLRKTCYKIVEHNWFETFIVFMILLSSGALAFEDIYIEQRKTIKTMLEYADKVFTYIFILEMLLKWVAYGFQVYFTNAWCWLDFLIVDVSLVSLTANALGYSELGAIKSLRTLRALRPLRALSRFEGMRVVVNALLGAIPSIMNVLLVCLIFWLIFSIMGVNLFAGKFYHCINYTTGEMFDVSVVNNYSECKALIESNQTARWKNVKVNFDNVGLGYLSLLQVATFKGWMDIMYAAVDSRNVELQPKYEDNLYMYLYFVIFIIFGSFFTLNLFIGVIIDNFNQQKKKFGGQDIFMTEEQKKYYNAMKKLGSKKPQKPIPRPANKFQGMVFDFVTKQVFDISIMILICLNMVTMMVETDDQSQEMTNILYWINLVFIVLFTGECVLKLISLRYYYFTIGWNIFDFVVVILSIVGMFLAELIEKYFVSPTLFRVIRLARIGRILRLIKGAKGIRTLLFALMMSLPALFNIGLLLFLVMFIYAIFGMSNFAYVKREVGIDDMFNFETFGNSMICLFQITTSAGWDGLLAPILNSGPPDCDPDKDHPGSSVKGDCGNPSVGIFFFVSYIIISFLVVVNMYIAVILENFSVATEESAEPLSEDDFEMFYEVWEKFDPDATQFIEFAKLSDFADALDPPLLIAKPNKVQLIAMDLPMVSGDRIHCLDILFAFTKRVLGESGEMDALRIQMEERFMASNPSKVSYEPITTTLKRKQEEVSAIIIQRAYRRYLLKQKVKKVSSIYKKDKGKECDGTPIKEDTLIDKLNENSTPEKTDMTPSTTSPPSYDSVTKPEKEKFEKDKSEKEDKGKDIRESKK

[3] = target: voltage-gated Ca2+ (Cav1.2) channel (Homo sapiens, UniProt Q13936); test: Voltage-gated Ca2+ channel inhibition/activation; format: cell-based; conditions: ASPA administered alone, up to micromolar concentrations
Chain of voltage-gated Ca2+ (Cav1.2) channel (Q13936 whole entry): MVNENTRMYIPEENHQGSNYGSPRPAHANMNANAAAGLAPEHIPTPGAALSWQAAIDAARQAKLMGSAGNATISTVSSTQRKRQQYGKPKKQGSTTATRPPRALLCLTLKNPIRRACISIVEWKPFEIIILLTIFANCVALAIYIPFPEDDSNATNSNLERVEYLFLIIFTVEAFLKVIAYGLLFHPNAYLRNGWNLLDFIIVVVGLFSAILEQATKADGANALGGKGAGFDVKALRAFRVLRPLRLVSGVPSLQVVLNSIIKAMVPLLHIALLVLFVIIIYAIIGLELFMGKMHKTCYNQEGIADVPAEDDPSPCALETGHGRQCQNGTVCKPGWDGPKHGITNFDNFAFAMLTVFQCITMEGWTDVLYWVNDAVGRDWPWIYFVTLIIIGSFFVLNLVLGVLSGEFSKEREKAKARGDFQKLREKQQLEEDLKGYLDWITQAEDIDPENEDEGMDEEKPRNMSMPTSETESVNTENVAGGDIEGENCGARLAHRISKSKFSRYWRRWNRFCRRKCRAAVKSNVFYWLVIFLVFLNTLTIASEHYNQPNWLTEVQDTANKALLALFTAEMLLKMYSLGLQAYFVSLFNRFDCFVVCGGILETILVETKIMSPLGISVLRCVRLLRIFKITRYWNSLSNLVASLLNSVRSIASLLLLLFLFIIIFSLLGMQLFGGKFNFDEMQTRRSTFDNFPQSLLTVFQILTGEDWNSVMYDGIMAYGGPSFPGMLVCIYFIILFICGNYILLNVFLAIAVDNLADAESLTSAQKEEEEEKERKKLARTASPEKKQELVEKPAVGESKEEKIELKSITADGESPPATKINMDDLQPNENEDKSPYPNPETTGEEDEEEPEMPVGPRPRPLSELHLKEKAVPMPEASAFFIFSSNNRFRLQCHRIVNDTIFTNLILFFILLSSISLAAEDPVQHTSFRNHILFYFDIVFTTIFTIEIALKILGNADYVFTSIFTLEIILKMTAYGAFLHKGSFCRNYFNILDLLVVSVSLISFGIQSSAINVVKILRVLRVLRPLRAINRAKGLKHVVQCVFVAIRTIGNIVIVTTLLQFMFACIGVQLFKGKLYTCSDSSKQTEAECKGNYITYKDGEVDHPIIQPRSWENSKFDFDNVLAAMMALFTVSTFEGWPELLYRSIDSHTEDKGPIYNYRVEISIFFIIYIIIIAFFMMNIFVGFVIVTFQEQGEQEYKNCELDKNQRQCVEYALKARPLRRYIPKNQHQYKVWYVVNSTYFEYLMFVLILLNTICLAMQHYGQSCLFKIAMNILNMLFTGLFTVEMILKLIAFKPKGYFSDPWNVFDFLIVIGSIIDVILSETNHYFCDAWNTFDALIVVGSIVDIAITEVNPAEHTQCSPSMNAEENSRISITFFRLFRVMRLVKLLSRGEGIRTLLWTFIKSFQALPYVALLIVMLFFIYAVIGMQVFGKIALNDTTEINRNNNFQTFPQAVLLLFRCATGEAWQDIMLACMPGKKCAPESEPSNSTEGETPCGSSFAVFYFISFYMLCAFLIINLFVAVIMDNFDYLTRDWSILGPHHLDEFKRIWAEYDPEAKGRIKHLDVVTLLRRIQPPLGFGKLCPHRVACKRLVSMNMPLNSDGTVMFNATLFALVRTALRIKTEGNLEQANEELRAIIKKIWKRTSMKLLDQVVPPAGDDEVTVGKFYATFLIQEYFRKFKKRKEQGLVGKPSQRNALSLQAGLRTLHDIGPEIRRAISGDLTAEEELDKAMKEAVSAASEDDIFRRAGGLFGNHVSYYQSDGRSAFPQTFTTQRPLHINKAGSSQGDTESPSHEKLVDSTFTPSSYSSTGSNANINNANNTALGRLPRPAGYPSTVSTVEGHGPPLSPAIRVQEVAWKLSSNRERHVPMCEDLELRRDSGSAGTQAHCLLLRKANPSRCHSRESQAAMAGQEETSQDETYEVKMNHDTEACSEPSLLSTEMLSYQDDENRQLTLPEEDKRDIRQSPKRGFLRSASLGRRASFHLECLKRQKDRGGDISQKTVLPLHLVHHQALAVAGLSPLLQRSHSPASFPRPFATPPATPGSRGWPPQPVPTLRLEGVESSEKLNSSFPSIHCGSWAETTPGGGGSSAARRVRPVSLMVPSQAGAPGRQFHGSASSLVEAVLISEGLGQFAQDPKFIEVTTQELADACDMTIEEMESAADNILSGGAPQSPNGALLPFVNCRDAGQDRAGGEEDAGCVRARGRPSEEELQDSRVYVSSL

[4] = system: veratridine binding site of the VGSC (neurotoxin site 2)
[5] = system: neuraminidase from Arthrobacter ureafaciens; test: Neuraminidase inhibition; format: biochemical; conditions: Arthrobacter ureafaciens enzyme; up to 50 μM
[6] = system: neuraminidase from Clostridium perfringens; format: biochemical
[7] = target: neuraminidase from Vibrio cholera (Vibrio cholerae serotype O1, UniProt P0C6E9); test: Neuraminidase inhibition; format: biochemical; conditions: Vibrio cholera enzyme; up to 50 μM
Chain of neuraminidase from Vibrio cholera (P0C6E9 25-781): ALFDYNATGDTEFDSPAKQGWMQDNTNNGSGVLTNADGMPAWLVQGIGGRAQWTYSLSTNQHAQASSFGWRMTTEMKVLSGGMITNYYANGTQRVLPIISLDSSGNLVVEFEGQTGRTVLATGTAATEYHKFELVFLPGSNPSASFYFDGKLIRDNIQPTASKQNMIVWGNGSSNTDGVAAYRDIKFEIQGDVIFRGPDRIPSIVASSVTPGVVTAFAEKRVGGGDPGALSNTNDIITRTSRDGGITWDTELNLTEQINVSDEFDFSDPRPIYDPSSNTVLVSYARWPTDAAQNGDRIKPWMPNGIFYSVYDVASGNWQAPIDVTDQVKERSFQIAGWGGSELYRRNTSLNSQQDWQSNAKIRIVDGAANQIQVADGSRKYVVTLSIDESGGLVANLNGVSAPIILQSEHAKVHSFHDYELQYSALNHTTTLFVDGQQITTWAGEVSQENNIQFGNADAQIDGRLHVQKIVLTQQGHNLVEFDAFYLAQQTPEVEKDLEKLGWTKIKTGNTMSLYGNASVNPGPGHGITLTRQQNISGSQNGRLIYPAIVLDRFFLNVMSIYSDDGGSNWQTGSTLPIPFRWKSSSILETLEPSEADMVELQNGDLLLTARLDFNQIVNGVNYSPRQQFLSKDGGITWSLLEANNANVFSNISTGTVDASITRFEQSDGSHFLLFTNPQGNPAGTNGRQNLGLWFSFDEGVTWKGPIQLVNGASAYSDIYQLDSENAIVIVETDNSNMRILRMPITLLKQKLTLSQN

[8] = target: T1, neuraminidase from Micromonospora viridifaciens (Micromonospora viridifaciens, UniProt Q02834); test: Neuraminidase inhibition; format: biochemical; conditions: Micromonospora viridifaciens enzyme; up to 50 μM
T1 sequence (Q02834 38-647): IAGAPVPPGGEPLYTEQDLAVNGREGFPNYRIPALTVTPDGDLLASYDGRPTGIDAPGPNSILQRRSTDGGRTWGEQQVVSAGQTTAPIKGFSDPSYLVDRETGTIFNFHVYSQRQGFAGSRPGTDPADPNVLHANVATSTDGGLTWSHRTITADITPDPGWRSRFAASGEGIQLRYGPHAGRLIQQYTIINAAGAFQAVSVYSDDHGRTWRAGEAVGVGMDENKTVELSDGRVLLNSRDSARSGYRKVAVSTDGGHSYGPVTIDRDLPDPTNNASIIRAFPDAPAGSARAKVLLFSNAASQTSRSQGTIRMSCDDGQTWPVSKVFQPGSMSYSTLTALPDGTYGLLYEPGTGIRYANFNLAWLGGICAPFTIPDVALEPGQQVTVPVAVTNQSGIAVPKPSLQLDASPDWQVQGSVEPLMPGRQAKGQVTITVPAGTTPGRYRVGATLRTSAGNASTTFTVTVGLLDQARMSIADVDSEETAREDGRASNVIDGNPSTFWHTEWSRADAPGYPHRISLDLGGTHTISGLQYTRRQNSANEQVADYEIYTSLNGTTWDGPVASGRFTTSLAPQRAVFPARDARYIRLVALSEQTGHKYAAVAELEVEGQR

[9] = system: neuraminidase from recombinant influenza A virus H1N1; test: Neuraminidase inhibition; format: biochemical; conditions: recombinant influenza A virus H1N1 enzyme; up to 50 μM
proteinase K = proteinase K (Parengyodontium album, UniProt P06873); test: Proteolytic stability against proteinase K; format: in vitro ADME; conditions: proteinase K from Tritirachium album; 50 °C, up to 48 h
thermolysin = target: T2, thermolysin (Bacillus thermoproteolyticus, UniProt P00800); test: Proteolytic stability against thermolysin; format: in vitro ADME; conditions: thermolysin from Bacillus thermoprotelyticus rokko; 65 °C, up to 12 h
T2 sequence (P00800 233-548): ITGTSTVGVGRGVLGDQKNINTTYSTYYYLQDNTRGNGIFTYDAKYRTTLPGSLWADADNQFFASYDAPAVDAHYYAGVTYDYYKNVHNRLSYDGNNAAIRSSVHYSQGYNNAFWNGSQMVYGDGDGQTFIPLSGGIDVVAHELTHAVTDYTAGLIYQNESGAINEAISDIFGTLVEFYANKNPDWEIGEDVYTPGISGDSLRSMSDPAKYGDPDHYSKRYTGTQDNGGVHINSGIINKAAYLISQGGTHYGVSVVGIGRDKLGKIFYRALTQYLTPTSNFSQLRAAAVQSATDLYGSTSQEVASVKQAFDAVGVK

mice = test: Toxicity in mice; format: in vivo; conditions: i.p. 40 μg/g
chicks = test: Toxicity in chicks; format: in vivo; conditions: i.c.v. 60 μg/g
bacterial neuraminidases = conditions: cited from earlier work

Compound	Effect on oscillation frequency or amplitude of neuronal Ca2+ currents [1]	Inhibition or activation of NaV1.2 [2]	Inhibition or activation of Cav1.2 [3]	Allosteric interaction with the veratridine binding site of the VGSC [4]	Neuraminidase inhibition [5]	Neuraminidase inhibition [6]	Neuraminidase inhibition [7]	Neuraminidase inhibition [8]	Neuraminidase inhibition [9]	Proteolytic stability against proteinase K (proteinase K)	Proteolytic stability against thermolysin (thermolysin)	Toxicity or behavior changes (mice)	Toxicity or behavior changes (chicks)	Inhibition of bacterial neuraminidases (bacterial neuraminidases)
CC[C@H](C)[C@@H]1NC(=O)[C@@H]2CSSC[C@@H]3NC(=O)[C@H](CO)NC(=O)[C@H](CCC(=O)O)NC(=O)CNC(=O)[C@H](CCC(=O)O)NC(=O)[C@H](Cc4ccccc4)NC(=O)[C@H](C)NC(=O)[C@@H](NC(=O)CNC(=O)[C@@H]4CCC(=O)N4)CSSC[C@H](NC(=O)[C@H](CSSC[C@@H](C(=O)N[C@@H](Cc4ccc(O)cc4)C(=O)N[C@@H](Cc4ccc(O)cc4)C(=O)N[C@@H](CC(C)C)C(=O)O)NC(=O)[C@H]([C@@H](C)O)NC(=O)CNC(=O)[C@H](CC(=O)O)NC(=O)[C@@H]4CCCN4C(=O)[C@H](CC(N)=O)NC(=O)CNC(=O)[C@@H]4CCCN4C1=O)NC(=O)[C@@H]1CCCN1C(=O)[C@H](Cc1ccc(O)cc1)NC(=O)[C@H](Cc1ccccc1)NC(=O)[C@H](CCC(N)=O)NC(=O)[C@H](C(C)C)NC(=O)[C@H](CC(N)=O)NC3=O)C(=O)N1CCC[C@H]1C(=O)NCC(=O)N[C@@H](CC(C)C)C(=O)NCC(=O)N[C@@H](CC(C)C)C(=O)N[C@@H]([C@@H](C)O)C(=O)N2 [ASPA, Asteropsin A] ([pGlu]GCAFEGESCNVQFYPCCPGLGLTCIPGNPDGTCYYL-OH; disulfide 3-18, 10-25, 17-34; C-terminus assumed)	did not modify	Neither the inhibition nor the activation	Neither the inhibition nor the activation	not observed	no inhibition	no inhibition	no inhibition	no inhibition	no inhibition	extraordinary proteolytic stability	extraordinary proteolytic stability	no toxicity or behavior changes were observed	no toxicity or behavior changes were observed	
asteropine A [APA]														potent competitive inhibitor
